Measurements published in US20180092845A1, “ENZYME-RESPONSIVE NANOPARTICLES” (THE REGENTS OF THE UNIVERSITY OF CALIFORNIA, priority 2015, published 2018).

Legend:
[1] = tested on: healthy nu/nu mice; settings: suspension in 1:1 Cremophor EL to ethanol; literature; cited from earlier work
[2] = tested on: healthy nu/nu mice; test: in vivo; settings: 30 mg/kg IV; listed as clinically formulated paclitaxel
Procedure: (§1) Mouse weight was recorded once daily until all animals in the cohort returned to, or surpassed, their weight on the day of injection. […] Two additional cohorts (6 mice, 3 per group) were treated with 15 mg/kg and 30 mg/kg of clinically formulated paclitaxel (a 6 mg/mL suspension in 1:1 ethanol:Cremophor EL®, diluted with 1×DPBS prior to injection).

[3] = in vivo; settings: female, nu/nu, mouse, in vivo, iv
Procedure: as §1

SMILES: CC(=O)O[C@H]1C(=O)[C@@]2(C)[C@H]([C@H](OC(=O)c3ccccc3)[C@]3(O)C[C@H](OC(=O)[C@H](O)[C@@H](NC(=O)c4ccccc4)c4ccccc4)C(C)=C1C3(C)C)[C@]1(OC(C)=O)CO[C@@H]1C[C@@H]2O [PTX, paclitaxel]
- MTD in mice previously established [1]: 10 to 30 mg/kg
- lethality [2]: 1 out of the 3 animals died within 30 minutes post-injection and also died within an hour of injection
- LD50 [3]: 30 mg/kg
- MTD [3]: 15 mg/kg
